Measurements from PubChem BioAssay (NCI).
Where “and” joins values, the source holds several entries; their conditions need not be identical. Equal entries are not always repeated.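 48-hour exposure; five concentrations; linearly interpolated endpoints. The concentration for 50% growth inhibition is given as GI50. TGI is the concentration that stops growth completely.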

Columns and labels:
Assay in all cases: NCI-60 cell line screen, 48 h
[1] = system: SF-295 CNS
[2] = system: U251 CNS
[3] = system: HOP-92 NSCLC
[4] = system: NCI/ADR-RES ovarian
[5] = system: UO-31 renal
[6] = system: MDA-MB-435
[7] = system: RXF 393 renal
[8] = system: COLO 205 colon
[9] = system: CCRF-CEM leukemia
[10] = system: T-47D breast

| SMILES | TGI [1] | TGI [2] [µM] | TGI [3] | TGI [4] | TGI [5] | TGI [6] | TGI [7] | TGI [8] | TGI [9] [µM] | TGI [10] | GI50 [1] [µM] | GI50 [2] [µM] | GI50 [3] [µM] | GI50 [4] [µM] | GI50 [5] [µM] | GI50 [6] [µM] | GI50 [7] [µM] | GI50 [8] [µM] | GI50 [9] [µM] | GI50 [10] [µM] |
| --- | --- | --- | --- | --- | --- | --- | --- | --- | --- | --- | --- | --- | --- | --- | --- | --- | --- | --- | --- | --- |
| O=C(O)CCC1COc2ccccc2O1 (centres undefined) | > 10 µM | > 10 | > 10 µM | > 10 µM | > 10 µM | > 10 µM | > 10 µM | > 10 µM | > 10 | > 10 µM | – | – | – | – | – | – | – | – | – | – |
| COc1cc2c3c(n(CCCN)c(=O)c2cc1OC)-c1ccc(F)cc1C3=O | 14.9 µM | 6.45 | 42.9 µM | 25.2 µM | 23.7 µM | 25.5 µM | 26.6 µM | 5.4 µM | 0.987 | 15.5 µM | 0.564 | 0.746 | 8.91 | 10.6 | 8.15 | 8.16 | 7.64 | 1.79 | 0.17 | 2.46 |
| COc1c2ccccc2c(O)c2c(=O)c(C(=O)O)cn(C)c12 | > 100 µM | > 100 | > 100 µM | > 100 µM | > 100 µM | > 100 µM | > 100 µM | > 100 µM | > 100 | > 100 µM | 28.8 | > 100 | 56.9 | > 100 | > 100 | > 100 | 80.3 | > 100 | > 100 | > 100 |
| C#CCN1CCN(C(=S)N/N=C(\C)c2ccccn2)CC1 | 7.91 µM and 4.8 µM | 4.45 | 5.13 µM and 5.16 µM | 1.68 µM and 1.56 µM | 4.56 µM and 3.77 µM | 3.39 µM and 4.03 µM | 5.46 µM and 3.48 µM | 2.3 µM and 0.915 µM | 2.14 | 3.6 µM and 4.06 µM | 2.11 | 0.0126 | 3.43 | 0.0304 | 2.61 | – | 3.95 | 0.00362 | – | – |
| O=C(Oc1ccc([N+](=O)[O-])cc1)N1CCN(Cc2cccc(Oc3ccccc3)c2)CC1 | > 100 µM | > 100 | > 100 µM | > 100 µM | > 100 µM | > 100 µM | > 100 µM | > 100 µM | > 100 | > 100 µM | 62.9 | > 100 | 18.2 | > 100 | 8.17 | > 100 | > 100 | > 83.5 | 40.5 | 17.7 |
| CCc1cccc(CC)c1NC(=S)NC(=O)c1ccc(Br)cc1 | > 100 µM | > 100 | 64.6 µM | > 100 µM | > 100 µM | 83.5 µM | > 78 µM | > 53.3 µM | > 31.6 | > 100 µM | – | – | – | – | – | – | – | – | – | – |
| CN(C)CCNC(=O)c1cccc2cc3ccccc3nc12 | 4.62 µM | 4.91 | 5.41 µM | 5.83 µM | 4.06 µM | 6.67 µM | 4.13 µM | 3.55 µM | > 32.1 | 10.6 µM | 1.26 | 1.02 | 1.24 | 1.55 | 1.11 | 1.86 | 1.42 | 0.779 | 1.37 | 1.95 |
| COc1ccc2cc(C(=O)/C=C/c3cccc(Cl)c3Cl)ccc2c1 | > 100 µM | 65.3 | > 79.7 µM | > 100 µM | > 53.2 µM | 29.6 µM | 12.4 µM | > 71.6 µM | > 100 | > 100 µM | 5.94 | 6.19 | 22.1 | 12.7 | 10.2 | 1.44 | 2.79 | 24.7 | 52.6 | > 59 |
| COc1cccc(/C=C/C(=O)c2ccc(Cl)cc2Cl)c1OC | 32.5 µM | 18.7 | 19.5 µM | 25.2 µM | 17.4 µM | 18.7 µM | 15.8 µM | 17.4 µM | 26.9 | 25.5 µM | 15 | 6.19 | 4.35 | 11.1 | 3.43 | 5.51 | 4.07 | 5.44 | 2.77 | 8.59 |
| COc1cc2cc(Oc3ccc(NC(=O)Nc4ccccc4)cc3)c(C)nc2cc1OCCN1CCCCC1 | 11.2 µM | 11.4 | 7.66 µM | 14.5 µM | 7.94 µM | 10.1 µM | 8.99 µM | 13.1 µM | 4.29 | 14.5 µM | 6 | 5.32 | 2.72 | 6.54 | 3.87 | 5.55 | 4.42 | 6.25 | 1.05 | 6.12 |
| CC(C)(C)OC(=O)NCCCCCCCCn1c2c(c3ccccc3c1=O)C(=O)c1ccccc1-2 | > 41.6 µM | > 50 | 21 µM | > 50 µM | > 50 µM | > 50 µM | 24.5 µM | > 50 µM | > 11.4 | > 50 µM | 11.1 | 16.7 | 9.05 | > 42.1 | 34 | > 50 | 8.49 | > 50 | – | > 48 |
| C=C(CN1CCN(c2cccc(C(F)(F)F)c2)CC1)c1ccc(C(=O)Nc2ccccc2N)cc1 | 3.88 µM | 5.84 | 17.8 µM | > 50 µM | 12.1 µM | 0.554 µM | – | > 23 µM | > 50 | > 50 µM | 0.537 | 1.18 | 1.51 | 2.34 | 2.4 | 0.156 | 1.62 | 3.45 | 0.335 | 13.2 |
| N#C/C(=C/C=C(\Cl)c1ccc(Cl)cc1)C(N)=O | 3.45 µM | 5.32 | 9.72 µM | 7.43 µM | > 46.8 µM | 4.12 µM | > 57.6 µM | > 55.8 µM | > 100 | 26.4 µM | 1.65 | 2.29 | 2.47 | 2.67 | – | 1.93 | 3.75 | 5.24 | 2.81 | 3.26 |
